Results published in PMC3426442 (Bioorganic & medicinal chemistry letters, 2012).

Tests used:
[1] = system: NL4-3 V370A; details: V370A versus NL4-3, single cycle infection assay
[2] = in vitro; compared to A43D (A43D compared to bevirimat)
[3] = in vitro; details: human, microsomes
[4] = ref not given; cited from earlier work

SMILES	times less potent against the resistant variant [1]	microsomal / metabolic stability in words [2]	microsomal CLint [3]	half-life in vivo [4]
Cc1cn([C@H]2C[C@H](N=[N+]=[N-])[C@@H](CO)O2)c(=O)[nH]c1=O [AZT, 3′-azido-3′-deoxythymidine]	2 times			
C=C(C)[C@@H]1CC[C@]2(C(=O)NCCCCCCCNC(C)=O)CC[C@]3(C)[C@H](CC[C@@H]4[C@@]5(C)CC[C@H](O)C(C)(C)[C@@H]5CC[C@]43C)[C@@H]12 [Compound 1]		poor	272 µL/min/mg	
C=C(C)[C@@H]1CC[C@]2(C(=O)NCCCCCCCNC(=O)[C@H](CCC(N)=O)NC(=O)OC(C)(C)C)CC[C@]3(C)[C@H](CC[C@@H]4[C@@]5(C)CC[C@H](O)C(C)(C)[C@@H]5CC[C@]43C)[C@@H]12 [Compound 2]			366 µL/min/mg	
C=C(C)[C@@H]1CC[C@]2(C(=O)NCCCCCCCCC(=O)N[C@@H](CCC(N)=O)C(=O)OC)CC[C@]3(C)[C@H](CC[C@@H]4[C@@]5(C)CC[C@H](O)C(C)(C)[C@@H]5CC[C@]43C)[C@@H]12 [Compound 13]		improved metabolic stability	230 µL/min/mg	
C=C(C)[C@@H]1CC[C@]2(C(=O)NCCCCCCCCC(=O)N[C@@H](CCC(N)=O)C(=O)OCc3ccccc3)CC[C@]3(C)[C@H](CC[C@@H]4[C@@]5(C)CC[C@H](O)C(C)(C)[C@@H]5CC[C@]43C)[C@@H]12 [Compound 15]		improved metabolic stability	169 µL/min/mg	
COC(=O)[C@H](CCC(N)=O)NC(=O)CCCCCCCCNC(=O)[C@]12CC[C@@H](C(C)C)[C@@H]1[C@H]1CC[C@@H]3[C@@]4(C)CC[C@H](O)C(C)(C)[C@@H]4CC[C@@]3(C)[C@]1(C)CC2 [Compound 38]		improved metabolic stability	219 µL/min/mg	
CC(C)[C@@H]1CC[C@]2(C(=O)NCCCCCCCCC(=O)N[C@@H](CCC(N)=O)C(=O)O)CC[C@]3(C)[C@H](CC[C@@H]4[C@@]5(C)CC[C@H](O)C(C)(C)[C@@H]5CC[C@]43C)[C@@H]12 [Compound 39]			280 µL/min/mg	
CC(C)(C)c1ccc(C(O)CCCN2CCC(C(O)(c3ccccc3)c3ccccc3)CC2)cc1 (stereo not drawn) [Terfenadine]				around 3.5 h
